Literature values in patent US8017153B2, “Dietary supplement composition for blood lipid health” (U.S. Nutraceuticals, LLC, priority 2006, dated 2011).

Settings: Human studies

In the case of [^3H]-octacosanol, the “total radioactivity excreted in the feces” value is listed as 81-91% and the “total radioactivity found in urine” value is listed as 1.2%.
